Test results published in patent publication US20240358721A1, “GASDERMIN-D INHIBITORS AND USES THEREOF FOR TREATING PULMONARY VASO-OCCLUSION” (UNIVERSITY OF PITTSBURGH-OF THE COMMONWEALTH SYSTEM OF …, priority 2021, published 2024).
Entries after “also recorded” stand apart in the source; their conditions may differ.

Columns and labels:
[1] = tested on: SCD-Selp−/− mice; experiment: qFILM assessment of P-selectin-independent pulmonary vaso-occlusion in SCD-Selp−/− mice IV administered oxy-Hb; format: in vivo, mouse; conditions: IV 10 μmole/kg oxy-Hb with 10 mg/kg inhibitor vs oxy-Hb alone, 10 mg/kg
Text: Quantitative fluorescence intravital lung microscopy (qFILM) was used to assess the absence or presence of platelet-neutrophil aggregate mediated pulmonary vaso-occlusion. Pulmonary microcirculation (pseudo-colored purple), neutrophils (red) and platelets (pseudo-colored green) were labeled in vivo by IV administration of FITC dextran, AF546-anti-Ly6G Ab and V450-anti-CD49b Ab, respectively. […] White arrows denote the direction of blood flow within the pulmonary arterioles. Alveoli are marked with asterisks. Scale bars 20 μm. The diameter of pulmonary arteriole in B-E is ˜22 μm, 32 μm, 31.5 μm, and 31 μm, respectively. […] Refer Online Data Supplement for details. […] The data for mice with SCD IV administered 10 oxy-Hb (n=5 mice; 75 FOVs) are included as black bars in FIGS. 1N and 1O for relative comparison. qFILM FOV size ˜65 536 μm^2. Data represent mean ±SE and are compared using Student t test. *P<0.05 (FIG. 1P) Schematic showing the main findings of the study. The sterile inflammatory milieu (DAMPs, IFN-I signaling, and ROS) in SCD promotes caspase-4 (humans) or caspase-11 (mouse)-dependent cleavage of neutrophil GSDMD into the active form GSDMD-NT, leading to the shedding of NETs in the liver microcirculation. Once shed, these NETs are carried by the blood as cNETs to the lung, where they promote neutrophil-platelet aggregation in the pulmonary arterioles, leading to PVO and lung injury (acute chest syndrome).
SCD-Selp^−/− mice were IV administered 10 μmole/kg oxy-Hb (10 oxy-Hb) without or with 10 mg/kg GSDMD inhibitor (Disulfiram). Quantitative fluorescence intravital lung microscopy (qFILM) was used to assess the absence or presence of pulmonary vasoocclusion using the same experimental scheme described in FIG. 1A. Pulmonary vasoocclusions (PVOs) were compared between treatment groups using following two parameters: Number of PVOs per Field of View (#PVOs/FOV) and number of large PVOs (with area>1000 μm^2) per FOV. […] The data for SCD mice IV administered 10 oxy-Hb (n=5 mice; 75 FOVs) is included as black bars in FIGS. 4A and 4B for relative comparison. FOV size˜65,536 μm^2. […]
(§1) (FIG. 5A) Experimental scheme: SCD or SCD-Selp^−/− mice were IV administered 10 μmole/kg oxy-Hb (10 oxy-Hb) without or with 10 mg/kg GSDMD inhibitors LDC75591 or Disulfiram. In FIGS. 5C-5D, venous blood was processed to generate PPP and cNETs detected in PPP using Imaging Flow Cytometry. Imaging Flow Cytometry data was quantified to estimate concentration of cNETs (#cNETs/μl of plasma). In FIGS. 5B, and 5E-5F, quantitative fluorescence intravital lung microscopy (qFILM) was used to detect arrival of circulating NETs (cNETs) within the lung microcirculation. Number of cNETs entering per FOV over a 1-minute duration (#cNETs/FOV/min) were quantified. […]

[2] = tested on: SCD-Selp−/− mice; experiment: cNETs in platelet-poor plasma by Imaging Flow Cytometry, SCD-Selp−/− mice; format: in vivo, mouse; conditions: IV 10 μmole/kg oxy-Hb with 10 mg/kg inhibitor vs oxy-Hb alone
Protocol: as §1, with “quantified. In FIGS. 5G-5J, qFILM was used to assess the absence or presence of pulmonary vaso-occlusion using the experimental strategy described in FIG. 1A. Pulmonary vaso-occlusions (PVOs) were compared between treatment groups using following two parameters: Number of PVOs per Field of View (#PVOs/FOV) and number of large PVOs (with area>1000 μm^2) per FOV. (FIG. 5B) #cNETs/FOV/min in SCD mice IV administered 10 oxy-Hb were not different from SCD-Selp^−/− mice IV administered 10 oxy-Hb. SCD IV Oxy-Hb (n=4 mice; 44 FOVs). SCD-Selp^−/− IV oxy-Hb (n=5 mice; 71 FOVs). (FIG. 5C) Plasma concentration of cNETs was not different between SCD and SCD-Selp^−/− mice (n=4 mice per group) IV administered 10 oxy-Hb.” for “quantified.”

In the case of COc1ccccc1-c1cc2n(n1)Cc1ccc(NC(C)=O)cc1OC2 [LDC7559], the “Number of PVOs per Field of View (#PVOs/FOV)” value [1] is reported as “significantly reduced; also recorded: threefold”, the “number of large PVOs (with area>1000 μm^2) per FOV” value [1] is reported as “absent; also recorded: absence” and the “Plasma concentration of cNETs (#cNETs/μl of plasma)” value [2] is reported as “significantly less”.
